Experimental data reported in US20250236608A1, “EGFR INHIBITORS” (Blueprint Medicines Corporation, priority 2022, published 2025).

Assays:
EGFR (d746-750) = EGFR (d746-750) (Homo sapiens (Human), UniProt P00533, DEL746-750); test: Biochemical EGFR inhibition assay, EGFR (d746-750); settings: Caliper mobility shift; 1.0 mM ATP or ATP Km; read-out: Enz EGFR_Exon19-del746-750 IC50
[1] = target: pEGFR (Tyr1068) in PC-9 cells (Ex19Del) (Homo sapiens (Human), UniProt P00533, DEL746-750); test: PC-9 pEGFR AlphaLISA assay; assay type: cell-based; settings: 4 hours incubation, p-EGFR (Tyr1068) AlphaLISA, read-out: Ext pEGFR_PC-9 Ex19Del IC50
pEGFR (Tyr1068) in PC-9 cells (Ex19Del), sequence (P00533 other isoform, or with tags, fused parts or gaps del 746-750): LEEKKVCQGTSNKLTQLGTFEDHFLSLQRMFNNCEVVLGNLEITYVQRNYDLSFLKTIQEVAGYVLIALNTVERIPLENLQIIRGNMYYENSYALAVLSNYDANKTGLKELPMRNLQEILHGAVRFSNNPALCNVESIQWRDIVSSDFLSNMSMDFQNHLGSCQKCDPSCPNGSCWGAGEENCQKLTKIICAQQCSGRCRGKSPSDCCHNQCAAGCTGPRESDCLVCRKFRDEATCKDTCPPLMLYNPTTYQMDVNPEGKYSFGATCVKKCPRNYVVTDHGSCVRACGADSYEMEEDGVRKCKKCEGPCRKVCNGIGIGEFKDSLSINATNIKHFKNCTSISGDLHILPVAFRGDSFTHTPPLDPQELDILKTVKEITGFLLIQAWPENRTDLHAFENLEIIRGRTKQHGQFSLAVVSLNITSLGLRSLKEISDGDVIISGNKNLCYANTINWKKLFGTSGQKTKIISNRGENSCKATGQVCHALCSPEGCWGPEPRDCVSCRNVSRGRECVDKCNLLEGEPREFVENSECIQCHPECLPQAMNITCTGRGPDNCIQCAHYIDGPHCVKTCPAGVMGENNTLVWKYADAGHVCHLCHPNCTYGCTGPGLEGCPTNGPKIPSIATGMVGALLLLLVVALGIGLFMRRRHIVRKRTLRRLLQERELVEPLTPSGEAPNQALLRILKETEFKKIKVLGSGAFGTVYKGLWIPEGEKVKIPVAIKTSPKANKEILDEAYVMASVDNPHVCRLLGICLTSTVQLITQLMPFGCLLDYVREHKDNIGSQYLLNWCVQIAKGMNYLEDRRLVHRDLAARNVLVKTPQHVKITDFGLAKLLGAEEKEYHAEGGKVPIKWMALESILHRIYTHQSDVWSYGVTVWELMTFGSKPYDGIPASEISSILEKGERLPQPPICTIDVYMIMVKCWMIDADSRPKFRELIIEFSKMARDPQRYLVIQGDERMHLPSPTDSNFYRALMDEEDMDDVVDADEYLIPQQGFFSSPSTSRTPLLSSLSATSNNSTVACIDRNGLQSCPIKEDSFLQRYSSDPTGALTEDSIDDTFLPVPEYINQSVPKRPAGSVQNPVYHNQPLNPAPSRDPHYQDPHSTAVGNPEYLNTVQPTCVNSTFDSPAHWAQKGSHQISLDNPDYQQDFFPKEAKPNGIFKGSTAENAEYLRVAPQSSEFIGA
Procedure, shortened: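 Readout: AlphaLISA SureFire Ultra signal in cell lysates, with acceptor beads for 1.5-2 h and donor beads overnight at room temperature in the dark. Beforehand, unstimulated cells in 10% FBS medium received compounds (10 points, 4-fold steps) for 4 h at 37° C. IC50 came from percent inhibition curves.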

EGFR L858R = EGFR L858R (Homo sapiens (Human), UniProt P00533, L858R); test: Biochemical EGFR inhibition assay, EGFR L858R; settings: Caliper mobility shift; 1.0 mM ATP or ATP Km; read-out: Enz EGFR_L858R IC50
EGFR L858R, sequence (P00533 25-1210 L858R): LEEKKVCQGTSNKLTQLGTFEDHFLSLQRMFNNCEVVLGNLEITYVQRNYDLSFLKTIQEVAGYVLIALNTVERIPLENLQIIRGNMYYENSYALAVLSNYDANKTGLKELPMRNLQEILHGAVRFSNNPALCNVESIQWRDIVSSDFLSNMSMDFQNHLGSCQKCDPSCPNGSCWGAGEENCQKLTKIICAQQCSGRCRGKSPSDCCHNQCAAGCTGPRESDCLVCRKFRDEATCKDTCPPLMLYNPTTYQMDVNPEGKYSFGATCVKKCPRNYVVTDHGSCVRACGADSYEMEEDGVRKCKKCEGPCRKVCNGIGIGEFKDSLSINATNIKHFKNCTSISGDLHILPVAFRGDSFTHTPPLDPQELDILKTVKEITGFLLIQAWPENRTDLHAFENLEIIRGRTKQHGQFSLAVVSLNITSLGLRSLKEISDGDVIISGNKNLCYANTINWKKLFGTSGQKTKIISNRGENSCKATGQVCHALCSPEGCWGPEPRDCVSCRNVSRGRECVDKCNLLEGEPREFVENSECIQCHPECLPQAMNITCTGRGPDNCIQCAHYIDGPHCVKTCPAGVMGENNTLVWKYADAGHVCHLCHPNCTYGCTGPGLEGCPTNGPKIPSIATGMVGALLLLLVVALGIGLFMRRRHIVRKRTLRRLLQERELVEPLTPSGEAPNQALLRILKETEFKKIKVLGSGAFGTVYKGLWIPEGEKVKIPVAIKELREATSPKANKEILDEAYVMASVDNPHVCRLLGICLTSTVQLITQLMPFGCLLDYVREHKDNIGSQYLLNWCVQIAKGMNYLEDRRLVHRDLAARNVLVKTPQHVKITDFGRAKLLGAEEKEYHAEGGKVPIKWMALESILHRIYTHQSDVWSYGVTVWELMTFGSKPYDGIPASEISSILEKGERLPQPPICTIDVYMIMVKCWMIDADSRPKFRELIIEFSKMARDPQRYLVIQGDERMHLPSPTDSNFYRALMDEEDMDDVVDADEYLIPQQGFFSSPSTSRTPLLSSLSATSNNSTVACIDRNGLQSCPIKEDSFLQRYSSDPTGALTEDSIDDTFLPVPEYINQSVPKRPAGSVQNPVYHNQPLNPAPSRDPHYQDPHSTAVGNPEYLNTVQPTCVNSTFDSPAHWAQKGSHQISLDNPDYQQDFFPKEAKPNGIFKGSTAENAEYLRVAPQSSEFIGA

EGFR (d746-750), sequence (P00533 other isoform, or with tags, fused parts or gaps del 1-694/del 746-750 limits assumed): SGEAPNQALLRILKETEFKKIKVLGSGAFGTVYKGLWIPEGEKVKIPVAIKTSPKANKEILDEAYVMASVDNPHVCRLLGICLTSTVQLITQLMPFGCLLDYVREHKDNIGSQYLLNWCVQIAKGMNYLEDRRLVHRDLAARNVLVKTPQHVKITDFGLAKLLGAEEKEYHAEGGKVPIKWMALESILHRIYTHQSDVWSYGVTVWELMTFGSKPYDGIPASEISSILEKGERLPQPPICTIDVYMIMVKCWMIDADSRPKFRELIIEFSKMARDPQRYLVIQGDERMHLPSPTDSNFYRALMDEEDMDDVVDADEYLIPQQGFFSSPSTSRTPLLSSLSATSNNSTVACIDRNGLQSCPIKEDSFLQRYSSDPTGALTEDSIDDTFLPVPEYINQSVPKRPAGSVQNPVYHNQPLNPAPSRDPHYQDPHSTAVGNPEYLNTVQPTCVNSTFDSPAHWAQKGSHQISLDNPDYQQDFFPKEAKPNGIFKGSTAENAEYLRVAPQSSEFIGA

SMILES	IC50 (EGFR (d746-750)) [nM]	IC50 [1] [nM]	IC50 (EGFR L858R) [nM]
CCOc1cc2ncnc(-c3cn(C)nc3-c3ccccc3)c2cc1NC(=O)c1cnn(C(F)(F)F)c1 [Example 232, N-(7-ethoxy-4-(1-methyl-3-phenyl-1H-pyrazol-4-yl)quinazolin-6-yl)-1-(trifluoromethyl)-1H-pyrazole-4-carboxamide]	1.5	4.1	2.7
COc1cc2ncnc(-c3cn(C)nc3-c3ccccc3)c2nc1O[C@@H](C)c1ncsc1C (single isomer, unassigned) [Example 54, (S)-4-(1-((7-methoxy-4-(1-methyl-3-phenyl-1H-pyrazol-4-yl)pyrido[3,2-d]pyrimidin-6-yl)oxy)ethyl)-5-methylthiazole or (R)-4-(1-((7-methoxy-4-(1-methyl-3-phenyl-1H-pyrazol-4-yl)pyrido[3,2-d]pyrimidin-6-yl)oxy)ethyl)-5-methylthiazole]	1	1.6	10.6
COc1cc2ncnc(-c3cn(C)nc3-c3ccccc3)c2cc1N1CC[C@H](F)[C@@H](O)C1 (single isomer, unassigned) [Example 172, (3S,4S)-4-fluoro-1-(7-methoxy-4-(1-methyl-3-phenyl-1H-pyrazol-4-yl)quinazolin-6-yl) piperidin-3-ol or (3R,4R)-4-fluoro-1-(7-methoxy-4-(1-methyl-3-phenyl-1H-pyrazol-4-yl)quinazolin-6-yl) piperidin-3-ol]	2.2	11.7	6.7
COc1cc2ncnc(-c3cn(C)nc3-c3ccccc3)c2cc1NC(=O)[C@H]1CCCN1C (single isomer, unassigned) [Example 242, (R)—N-(7-methoxy-4-(1-methyl-3-phenyl-1H-pyrazol-4-yl)quinazolin-6-yl)-1-methylpyrrolidine-2-carboxamide or (S)—N-(7-methoxy-4-(1-methyl-3-phenyl-1H-pyrazol-4-yl)quinazolin-6-yl)-1-methylpyrrolidine-2-carboxamide]	2.1	6.6	7
COc1cc2ncnc(-c3cn(C)nc3-c3ccccc3)c2cc1[C@@H]1CN(C)CCO1 [Example 130, (R)-2-(7-methoxy-4-(1-methyl-3-phenyl-1H-pyrazol-4-yl)quinazolin-6-yl)-4-methylmorpholine]	5.2	16.1	21.5
CN(C)CCOc1cc2ncnc(-c3cn(C)nc3-c3ccccc3)c2cc1NC(=O)c1ccccc1F [Example 300, N-(7-(2-(dimethylamino)ethoxy)-4-(1-methyl-3-phenyl-1H-pyrazol-4-yl)quinazolin-6-yl)-2-fluorobenzamide]	1.7	3.5	5
CCC(=O)Nc1cc2c(-c3cnn(C4CCOCC4)c3-c3ccccc3)ncnc2cc1OC [Example 498]	349	589	306
COc1cc2ncnc(-c3cn(C)nc3-c3ccccc3)c2cc1NC(=O)[C@@H]1CCN(C)C[C@H]1F [Example 284, (3S,4S)-3-fluoro-N-(7-methoxy-4-(1-methyl-3-phenyl-1H-pyrazol-4-yl)quinazolin-6-yl)-1-methylpiperidine-4-carboxamide]	4.7	18.7	8.7
COc1cc2ncnc(-c3cn(C)nc3-c3ccccc3)c2cc1NC(=O)C12COCC1C2 (stereo not drawn) [Example 278, N-(7-methoxy-4-(1-methyl-3-phenyl-1H-pyrazol-4-yl)quinazolin-6-yl)-3-oxabicyclo[3.1.0]hexane-1-carboxamide]	2.3	7.8	4.5
COc1cc2ncnc(-c3cn(C)nc3-c3ccccc3)c2cc1-c1ccc2c(c1)CN(C)C2=O [Example 137, 5-(7-methoxy-4-(1-methyl-3-phenyl-1H-pyrazol-4-yl)quinazolin-6-yl)-2-methylisoindolin-1-one]	2.2	3.6	3.9
COc1cc2ncnc(-c3cn(C)nc3-c3ccccc3)c2cc1-c1cccc(C(=O)NC2CC2)c1 [Example 142, N-cyclopropyl-3-(7-methoxy-4-(1-methyl-3-phenyl-1H-pyrazol-4-yl)quinazolin-6-yl)benzamide]	2.8	7.1	3.2
COc1cc2ncnc(-c3cn(C)nc3-c3ccccc3)c2nc1NC(=O)[C@]12COC[C@H]1C2 (single isomer, unassigned) [Example 432, (1S,5S)—N-(7-methoxy-4-(1-methyl-3-phenyl-1H-pyrazol-4-yl)pyrido[3,2-d]pyrimidin-6-yl)-3-oxabicyclo[3.1.0]hexane-1-carboxamide or (1R,5R)—N-(7-methoxy-4-(1-methyl-3-phenyl-1H-pyrazol-4-yl)pyrido[3,2-d]pyrimidin-6-yl)-3-oxabicyclo[3.1.0]hexane-1-carboxamide]	0.9	2.5	1.9
COc1cc2ncnc(-c3cn(CC(F)F)nc3-c3ccccc3)c2nc1NC(=O)[C@]12C[C@H]1CN(C)C2 (single isomer, unassigned) [Example 396, (1R,5R)—N-(4-(1-(2,2-difluoroethyl)-3-phenyl-1H-pyrazol-4-yl)-7-methoxypyrido[3,2-d]pyrimidin-6-yl)-3-methyl-3-azabicyclo[3.1.0]hexane-1-carboxamide or (1S,5S)—N-(4-(1-(2,2-difluoroethyl)-3-phenyl-1H-pyrazol-4-yl)-7-methoxypyrido[3,2-d]pyrimidin-6-yl)-3-methyl-3-azabicyclo[3.1.0]hexane-1-carboxamide]	1.1	0.5	1.7

Stronger by IC50 (EGFR (d746-750)), values ahead:

IC50 (EGFR (d746-750)) [nM]	IC50 [1] [nM]	IC50 (EGFR L858R) [nM]	SMILES
0.7	1.4	2.1	COc1cc2ncnc(-c3cn(C4CC4)nc3-c3ccccc3)c2nc1NC(=O)[C@]12C[C@H]1CN(C)C2 (single isomer, unassigned) [Example 407, (1R,5R)—N-(4-(1-cyclopropyl-3-phenyl-1H-pyrazol-4-yl)-7-methoxypyrido[3,2-d]pyrimidin-6-yl)-3-methyl-3-azabicyclo[3.1.0]hexane-1-carboxamide or (1S,5S)—N-(4-(1-cyclopropyl-3-phenyl-1H-pyrazol-4-yl)-7-methoxypyrido[3,2-d]pyrimidin-6-yl)-3-methyl-3-azabicyclo[3.1.0]hexane-1-carboxamide]
0.7	3.6	5.9	COc1cc2ncnc(-c3cn(C)nc3-c3ccccc3)c2nc1NC(=O)C12CC(N(C)C)(C1)C2 [Example 404, 3-(dimethylamino)-N-(7-methoxy-4-(1-methyl-3-phenyl-1H-pyrazol-4-yl)pyrido[3,2-d]pyrimidin-6-yl)bicyclo[1.1.1]pentane-1-carboxamide]
0.4	0.5	0.8	COc1cc2ncnc(-c3cn(C)nc3-c3ccccc3)c2cc1NC(=O)c1cnc(C)s1 [Example 206, N-(7-methoxy-4-(1-methyl-3-phenyl-1H-pyrazol-4-yl)quinazolin-6-yl)-2-methylthiazole-5-carboxamide]
0.8	1	1.4	COc1cc2ncnc(-c3cn(C)nc3-c3ccccc3)c2cc1NC(=O)c1scnc1C [Example 207, N-(7-methoxy-4-(1-methyl-3-phenyl-1H-pyrazol-4-yl)quinazolin-6-yl)-4-methylthiazole-5-carboxamide]
0.8	2.3	2.2	COc1cc2ncnc(-c3cn(C)nc3-c3ccccc3F)c2nc1NC(=O)[C@@]12C[C@@H]1CN(C)C2 [Example 373, (1S,5S)—N-(4-(3-(2-fluorophenyl)-1-methyl-1H-pyrazol-4-yl)-7-methoxypyrido[3,2-d]pyrimidin-6-yl)-3-methyl-3-azabicyclo[3.1.0]hexane-1-carboxamide]
0.4	0.7	1.7	CCOc1cc2ncnc(-c3cn(C)nc3-c3ccc(F)cc3)c2nc1NC(=O)[C@@]12COC[C@@H]1C2 (single isomer, unassigned) [Example 385, (1R,5R)—N-(7-ethoxy-4-(3-(4-fluorophenyl)-1-methyl-1H-pyrazol-4-yl)pyrido[3,2-d]pyrimidin-6-yl)-3-oxabicyclo[3.1.0]hexane-1-carboxamide or (1S,5S)—N-(7-ethoxy-4-(3-(4-fluorophenyl)-1-methyl-1H-pyrazol-4-yl)pyrido[3,2-d]pyrimidin-6-yl)-3-oxabicyclo[3.1.0]hexane-1-carboxamide]
0.7	0.8	1.1	COc1cc2ncnc(-c3cn(C)nc3-c3ccccc3)c2nc1O[C@@H](C)c1csc(C)n1 [Example 33, (S)-4-(1-((7-methoxy-4-(1-methyl-3-phenyl-1H-pyrazol-4-yl)pyrido[3,2-d]pyrimidin-6-yl)oxy)ethyl)-2-methylthiazole]
0.6	1.2	1.3	COc1cc2ncnc(-c3cn(C)nc3-c3ccccc3)c2nc1O[C@H](C)c1cscn1 (single isomer, unassigned) [Example 49, (R)-4-(1-((7-methoxy-4-(1-methyl-3-phenyl-1H-pyrazol-4-yl)pyrido[3,2-d]pyrimidin-6-yl)oxy)ethyl)thiazole or (S)-4-(1-((7-methoxy-4-(1-methyl-3-phenyl-1H-pyrazol-4-yl)pyrido[3,2-d]pyrimidin-6-yl)oxy)ethyl)thiazole]
0.4	0.7	0.7	COc1cc2ncnc(-c3cn(C)nc3-c3ccccc3)c2nc1NC(=O)c1cnc(C2CC2)s1 [Example 318, 2-cyclopropyl-N-(7-methoxy-4-(1-methyl-3-phenyl-1H-pyrazol-4-yl)pyrido[3,2-d]pyrimidin-6-yl)thiazole-5-carboxamide]
